Where two headings read alike, the source gives them in different places. Values belong to the compound of their own block, whether it stands above or below them.
Key:
HAase [1] = target: T1, HAase (Homo sapiens, UniProt P38567); assay: Compatibility study of HAase and antibiotic in solution: HAase activity; assay type: biochemical; settings: 15 min room temperature; for Final concentration of HAase (units/ml) 150: HAase added to 150 units/ml; for Final concentration of HAase (units/ml) 500: HAase added to 500 units/ml; for Final concentration of HAase (units/ml) 2000: HAase added to 2000 units/ml; for Final concentration of HAase (units/ml) 6000: HAase added to 6000 units/ml; for interference with the activity of HAase: antibiotic and HAase in physiological saline
T1 construct: made in house
T1 sequence (P38567 36-482): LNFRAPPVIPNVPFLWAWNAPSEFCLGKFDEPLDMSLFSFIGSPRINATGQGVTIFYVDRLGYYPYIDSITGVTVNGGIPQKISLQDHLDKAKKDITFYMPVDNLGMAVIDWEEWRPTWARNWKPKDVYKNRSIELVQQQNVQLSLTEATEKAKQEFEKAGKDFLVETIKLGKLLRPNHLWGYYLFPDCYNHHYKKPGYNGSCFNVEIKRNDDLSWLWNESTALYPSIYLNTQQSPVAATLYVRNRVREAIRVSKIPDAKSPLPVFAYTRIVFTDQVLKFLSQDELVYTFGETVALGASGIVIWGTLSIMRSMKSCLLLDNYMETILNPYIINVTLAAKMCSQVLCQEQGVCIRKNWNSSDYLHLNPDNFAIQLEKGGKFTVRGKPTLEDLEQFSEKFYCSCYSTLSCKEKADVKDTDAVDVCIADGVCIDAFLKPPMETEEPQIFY
Procedure: “HAase activity refers to the ability of HAase to catalytically cleave hyaluronic acid. The Chinese Pharmacopoeia provides a method for determining the HAase activity, indirectly by measuring the amount of remaining higher-molecular-weight hyaluronic acid substrate after the enzyme is allowed to catalytically cleave hyaluronic acid at 37° C. for 30 min. A standard reference solution can be used in the assay to determine the relative activity (in units) of any HAase. In-vitro assays for the determination of HAase are known in the art. Exemplary assays include micro-turbidimetric assay described below, which indirectly measures the cleavage of hyaluronic acid by HAase by detecting an insoluble precipitate formed when uncleaved hyaluronic acid binds to serum albumin. The reference standard can be used, for example, to generate a standard curve, so as to determine the activity of the tested HAase in units.
(§1) The compatibility of HAase and an antibiotic was studied by preparing a solution comprising the two substances. A dry Meropenem power for injection was dissolved in physiological saline to give a concentration of 5 mg/ml and 50 mg/ml, and then HAase was added to give a final concentration of 150, 500, 2000, and 6000 units/ml respectively. After preparation, the solution was left to stand at room temperature for 15 min. The appearance of the solution was observed, and the concentration of HAase was determined.
as §1, with “dry Ceftriaxone sodium” for “dry Meropenem”, “of 50” for “of 5”, “and 250” for “and 50”
as §1, with “dry Azithromycin” for “dry Meropenem”, “of 10” for “of 5”, “and 100” for “and 50”
as §1, with “dry Cefradine powder” for “dry Meropenem power”, “of 50” for “of 5”, “and 250” for “and 50”
as §1, with “dry Teicoplanin powder” for “dry Meropenem power”, “of 10” for “of 5”, “and 70” for “and 50”
as §1, with “dry Ceftazidime powder” for “dry Meropenem power”, “of 20” for “of 5”, “and 200” for “and 50”, “min.” for “min. The appearance of the solution was observed, and the concentration of HAase was determined.”

in vivo = settings: male, ICR, mouse
Description: (§2) The difference in pharmacokinetics between subcutaneous administration of antibiotics combined with recombinant human HAase and traditional intravenous administration of antibiotics in mice was studied. Ceftriaxone, Ceftazidime, Ertapenem, and Teicoplanin were used as model antibiotics. A total of 48 ICR male mice were used in each antibiotic model, and divided into two groups, each having 24 mice. The two groups include a tail vein injection group, and a subcutaneous administration group of antibiotics combined with recombinant human HAase. The single dose was 100-200 mg/kg, and the drugs was respectively formulated and administered according to the scheme for each group. Blood samples were taken 5 min, 15 min, 30 min, 45 min, 1 hr, 2 hrs, 4 hrs and 8 hrs after administration. The concentration of each model antibiotic in the sample was detected by LC-MS and the pharmacokinetic parameters were calculated.

[2] = male, ICR, mouse, in vivo, sc
Description: as §2

[3] = Pharmacokinetics of model antibiotics in mice: tail vein injection vs subcutaneous administration combined with recombinant human HAase; settings: for AUC(0-t): AUClast
Description: as §2

HAase [4] = target: T1, HAase; assay: Compatibility study of HAase and antibiotic in solution: HAase activity; assay type: biochemical; settings: 15 min room temperature
[5] = antibiotic 50 mg/ml in physiological saline
[6] = antibiotic 250 mg/ml in physiological saline
[7] = antibiotic 20 mg/ml in physiological saline
[8] = antibiotic 200 mg/ml in physiological saline
[9] = ICR male mice, in combination with recombinant human HAase for subcutaneous administration, single dose 100-200 mg/kg
[10] = antibiotic 30 mg/ml in physiological saline
[11] = antibiotic 300 mg/ml in physiological saline
[12] = ICR male mice, administration by injection via tail vein, single dose 100-200 mg/kg
[13] = ICR male mice, conventional subcutaneous administration, single dose 100-200 mg/kg
[14] = antibiotic 10 mg/ml in physiological saline
[15] = antibiotic 70 mg/ml in physiological saline

Compound: CC1=C(C(=O)O)N2C(=O)[C@@H](NC(=O)[C@H](N)C3=CCC=CC3)[C@H]2SC1 [Cefradine]
Final concentration of HAase (units/ml) 150 (HAase [1]; [5]): 162 units/ml | Final concentration of HAase (units/ml) 500 (HAase [1]; [5]): 492 units/ml | Final concentration of HAase (units/ml) 2000 (HAase [1]; [5]): 2009 units/ml | Final concentration of HAase (units/ml) 6000 (HAase [1]; [5]): 6126 units/ml | Final concentration of HAase (units/ml) 150 (HAase [1]; [6]): 161 units/ml | Final concentration of HAase (units/ml) 500 (HAase [1]; [6]): 482 units/ml | Final concentration of HAase (units/ml) 2000 (HAase [1]; [6]): 2080 units/ml | Final concentration of HAase (units/ml) 6000 (HAase [1]; [6]): 5797 units/ml | interference with the activity of HAase (HAase [1]): does not interfere with the activity of HAase

Compound: CC(C)(O/N=C(\C(=O)N[C@@H]1C(=O)N2C(C(=O)[O-])=C(C[n+]3ccccc3)CS[C@H]12)c1csc(N)n1)C(=O)O [Ceftazidime]
Tmax (in vivo; iv): 5 min | Tmax (in vivo; sc): 15 min | Final concentration of HAase (units/ml) 150 (HAase [1]; [7]): 145 units/ml | Final concentration of HAase (units/ml) 500 (HAase [1]; [7]): 501 units/ml | Final concentration of HAase (units/ml) 2000 (HAase [1]; [7]): 2026 units/ml | Final concentration of HAase (units/ml) 6000 (HAase [1]; [7]): 6027 units/ml | Final concentration of HAase (units/ml) 150 (HAase [1]; [8]): 148 units/ml | Final concentration of HAase (units/ml) 500 (HAase [1]; [8]): 488 units/ml | Final concentration of HAase (units/ml) 2000 (HAase [1]; [8]): 2001 units/ml | Final concentration of HAase (units/ml) 6000 (HAase [1]; [8]): 5981 units/ml | interference with the activity of HAase (HAase [1]): does not interfere with the activity of HAase

Continued, in another order:

Tmax (in vivo; iv): 5 min | Tmax [2]: 15 min | Final concentration of HAase (units/ml) 150 (HAase [1]; [5]): 162 units/ml | Final concentration of HAase (units/ml) 500 (HAase [1]; [5]): 510 units/ml | Final concentration of HAase (units/ml) 2000 (HAase [1]; [5]): 1986 units/ml | Final concentration of HAase (units/ml) 6000 (HAase [1]; [5]): 6067 units/ml | Final concentration of HAase (units/ml) 150 (HAase [1]; [6]): 162 units/ml | Final concentration of HAase (units/ml) 500 (HAase [1]; [6]): 507 units/ml | Final concentration of HAase (units/ml) 2000 (HAase [1]; [6]): 1962 units/ml | Final concentration of HAase (units/ml) 6000 (HAase [1]; [6]): 6232 units/ml
Compound: CO/N=C(\C(=O)N[C@@H]1C(=O)N2C(C(=O)O)=C(CSc3nc(=O)c(=O)[nH]n3C)CS[C@H]12)c1csc(N)n1 [Ceftriaxone]
interference with the activity of HAase (HAase [1]): does not interfere with the activity of HAase

Tmax [3, 9]: 15 min | Tmax ([3]; male, ICR, mouse, blood, iv): 5 min | AUC(0-t) ([3]; male, ICR, mouse, blood, iv, ICR male mice, administration by injection via tail vein, single dose 100-200 mg/kg): 450 µg·h/mL | Cmax ([3]; male, ICR, mouse, blood, iv, Cmax, ICR male mice, administration by injection via tail vein, single dose 100-200 mg/kg): 368 µg/mL | Tmax ([3]; male, ICR, mouse, blood, sc): 15 min | AUC(0-t) ([3]; male, ICR, mouse, blood, sc, ICR male mice, conventional subcutaneous administration, single dose 100-200 mg/kg): 442 µg·h/mL | AUC(0-t) ([3]; male, ICR, mouse, blood, sc, ICR male mice, in combination with recombinant human HAase for subcutaneous administration, single dose 100-200 mg/kg): 459 µg·h/mL | Cmax ([3]; male, ICR, mouse, blood, sc, Cmax, ICR male mice, conventional subcutaneous administration, single dose 100-200 mg/kg): 318 µg/mL | Cmax ([3]; male, ICR, mouse, blood, sc, Cmax, ICR male mice, in combination with recombinant human HAase for subcutaneous administration, single dose 100-200 mg/kg): 333 µg/mL | Final concentration of HAase (units/ml) 150 (HAase [1]; [10]): 152 units/ml | Final concentration of HAase (units/ml) 500 (HAase [1]; [10]): 501 units/ml | Final concentration of HAase (units/ml) 6000 (HAase [1]; [10]): 6121 units/ml | Final concentration of HAase (units/ml) 500 (HAase [1]; [11]): 511 units/ml | Final concentration of HAase (units/ml) 2000 (HAase [1]; [11]): 1974 units/ml | Final concentration of HAase (units/ml) 6000 (HAase [1]; [11]): 5990 units/ml | interference with the activity of HAase (HAase [1]): not interfere with the activity of HAase | Final concentration of HAase (units/ml) 2000 (HAase [4]; antibiotic 30 mg/ml in physiological saline, HAase added to 2000 units/ml): 2016 units/ml | Final concentration of HAase (units/ml) 150 (HAase [4]; antibiotic 300 mg/ml in physiological saline, HAase added to 150 units/ml): 156 units/ml
Compound: C[C@@H](O)[C@H]1C(=O)N2C(C(=O)O)=C(S[C@@H]3CN[C@H](C(=O)Nc4cccc(C(=O)O)c4)C3)[C@H](C)[C@H]12 [Ertapenem]

AUClast [3, 12]: 195 µg·h/mL | Cmax [3, 12]: 148 µg/mL | Tmax [3, 12]: 5 min | AUClast [3, 13]: 201 µg·h/mL | Cmax [3, 13]: 121 µg/mL | Tmax [3, 13]: 15 min | AUClast [3, 9]: 210 µg·h/mL | Cmax [3, 9]: 133 µg/mL | Tmax [3, 9]: 15 min | Final concentration of HAase (units/ml) 150 (HAase [1]; [14]): 160 units/ml | Final concentration of HAase (units/ml) 500 (HAase [1]; [14]): 488 units/ml | Final concentration of HAase (units/ml) 2000 (HAase [1]; [14]): 1972 units/ml | Final concentration of HAase (units/ml) 6000 (HAase [1]; [14]): 6033 units/ml | Final concentration of HAase (units/ml) 150 (HAase [1]; [15]): 152 units/ml | Final concentration of HAase (units/ml) 500 (HAase [1]; [15]): 498 units/ml | Final concentration of HAase (units/ml) 2000 (HAase [1]; [15]): 1961 units/ml | Final concentration of HAase (units/ml) 6000 (HAase [1]; [15]): 5979 units/ml
Compound: Teicoplanin
interference with the activity of HAase (HAase [1]): does not interfere with the activity of HAase

Source: patent US20250099557A1, “ANTIBIOTIC PHARMACEUTICAL COMPOSITION CAPABLE OF SUBCUTANEOUS ADMINISTRATION” (SHANGHAI BAO PHARMACEUTICALS CO., LTD., priority 2021, published 2025)
